Key:
apo E −/− mice = experiment: Subcutaneous immunization of apo E −/− mice with peptide test articles, plaque size in en face aorta; format: in vivo
From the text: Inhibition of atherosclerosis in apo E −/− mice by immunization with fifteen different test articles based on fifteen different peptide fragments of apo B was investigated.
In these experiments, apo E −/− mice received primary subcutaneous immunization at 6-7 weeks of age, followed by two boosters administered […]. The mice were fed a high cholesterol diet from 1 week after the second injection (10 weeks of age) and continued until sacrifice at 25 weeks of age. The effect of immunization on atherosclerosis formation was assessed by measuring plaque size (percent area stained with Oil Red O) in an en face preparation of the aorta.
Based on the results from these and other experiments, four peptides were identified as particularly effective in reducing the progression of atherosclerosis.

mouse LDL = experiment: ELISA of sera for antibodies to mouse LDL; format: in vivo; conditions: parenteral immunization; data not shown
Procedure: ELISA methods were used to quantitate serum Ig isotypes specific for the apoB-100 peptide as well as total IgG and IgM as previously described (ref. 19). Sera from immunized mice were tested for antibodies to mouse LDL by incubation (1/50, 1/150 and 1/450 dilutions) in plates coated with mouse LDL (10 μg/ml) and using alkaline phosphatase-conjugated anti-mouse-IgG as detector antibody. Sera from C57BL/6 mice immunized with OVA-CTB were assayed for reactivity to mouse or human LDL, or to apoB100, at dilutions of 1/25, 1/250 and 1/2500.

[1] = subcutaneous immunization at 6-7 weeks, boosters 3 and 5 weeks later, high cholesterol diet, plaque size (percent area Oil Red O) at 25 weeks

Substance	Reduction in atherosclerosis progression (apo E −/− mice; [1])	further results
KTTKQ SFDLS VKAQY KKNKH (KTTKQSFDLSVKAQYKKNKH) [Peptide P210]	(−49%, p = 0.06)	–
ATRFK HLRKY TYNYE AESSS (ATRFKHLRKYTYNYEAESSS; Apolipoprotein B-100; UniProt P04114 43-62, looked up, fragment) [Peptide P2]	(−42%, p < 0.05)	–
SLTST SDLQS GIIKN TASLK [Peptide P102]	–	Reduction in atherosclerosis progression (apo E −/− mice; mouse, in vivo, sc): (−52%, p < 0.05)
ovalbumin	–	IgG antibody responses to mouse LDL (mouse LDL): did not lead to induction of significant IgG antibody responses
IEIGL EGKGF EPTLE ALFGK (IEIGLEGKGFEPTLEALFGK) [Peptide P45]	(−53%, p < 0.05)	–

Source: patent US8506964B2, “Fusion proteins and related compositions, methods and systems for treatment and/or prevention of atherosclerosis” (priority 2010, dated 2013)
